Assay results published in ChEMBL document CHEMBL1201862, “PubChem BioAssay data set” (2004).
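Assay format: 96-well plates, 48-hour exposure. At the GI50, growth is halved.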 Activity calls are given as the source filed them. Cut-off read from the data, not from the text of the source: active = GI50 up to about 1.1 µM and inactive = higher.

How the values were obtained:
Assay in all cases: inhibition of tumour cell growth, NCI panel, 48 h
[1] = tested on: SR
[2] = tested on: DU-145
[3] = tested on: COLO 205
[4] = tested on: NCI-H460
[5] = tested on: HCT-116
[6] = tested on: UO-31
[7] = tested on: SK-OV-3
[8] = tested on: HOP-92
[9] = tested on: UACC-62
[10] = tested on: PC-3
[11] = tested on: A498
[12] = tested on: MDA-MB-231
[13] = tested on: K562
[14] = tested on: MDA-MB-435
[15] = tested on: UACC-257
[16] = tested on: MCF7
[17] = tested on: RXF 393
[18] = tested on: A549
[19] = tested on: SK-MEL-28
[20] = tested on: SF-295
[21] = tested on: SN12C
[22] = tested on: SK-MEL-5
[23] = tested on: KM12
[24] = tested on: IGROV-1
[25] = tested on: SF-268
[26] = tested on: TK-10
[27] = tested on: 786-0
[28] = tested on: HCT-15
[29] = tested on: NCI-H226
[30] = tested on: NCI-H522
[31] = tested on: U-251
[32] = tested on: Hs-578T
[33] = tested on: NCI/ADR-RES
[34] = tested on: OVCAR-5
[35] = tested on: HCC 2998
[36] = tested on: HL-60
[37] = tested on: SW-620
[38] = tested on: HOP-62
[39] = tested on: SK-MEL-2
[40] = tested on: CAKI-1
[41] = tested on: M14
[42] = tested on: SNB-19
[43] = tested on: OVCAR-8
[44] = tested on: HT-29
[45] = tested on: T47D
[46] = tested on: CCRF-CEM
[47] = tested on: OVCAR-4
[48] = tested on: Malme-3M
[49] = tested on: MDA-N
[50] = tested on: BT-549
[51] = tested on: LOX IMVI
[52] = tested on: MOLT-4
[53] = tested on: EKVX
[54] = tested on: NCI-H23
[55] = tested on: ACHN
[56] = tested on: RPMI-8226
[57] = tested on: SF-539
[58] = tested on: OVCAR-3
[59] = tested on: SNB-75

**Q.** Which results are given for `CCN(CC)CCn1nc(N)c2nc3cc(Cl)ccc3nc21`?
**A.** GI50 [1]: 82.8 µM (inactive); GI50 [2]: > 100 µM (inactive); GI50 [3]: 35.7 µM (inactive); GI50 [4]: 34.3 µM (inactive); GI50 [5]: 48.4 µM (inactive); GI50 [6]: 23.8 µM (inactive); GI50 [7]: > 100 µM (inactive); GI50 [8]: > 100 µM (inactive); GI50 [9]: 45.9 µM (inactive); GI50 [10]: 58.1 µM (inactive); GI50 [11]: > 100 µM (inactive); GI50 [12]: > 100 µM (inactive); GI50 [13]: 40.7 µM (inactive); GI50 [14]: 97.9 µM (inactive); GI50 [15]: 37.5 µM (inactive); GI50 [16]: 36.1 µM (inactive); GI50 [17]: 88.9 µM (inactive); GI50 [18]: 49.8 µM (inactive); GI50 [19]: 76.2 µM (inactive); GI50 [20]: 54.2 µM (inactive); GI50 [21]: 45.1 µM (inactive); GI50 [22]: 26.1 µM (inactive); GI50 [23]: 94.8 µM (inactive); GI50 [24]: 16.3 µM (inactive); GI50 [25]: 75.5 µM (inactive); GI50 [26]: > 100 µM (inactive); GI50 [27]: 62.8 µM (inactive); GI50 [28]: > 100 µM; GI50 [29]: 70.1 µM (inactive); GI50 [30]: 31.8 µM (inactive); GI50 [31]: > 100 µM (inactive); GI50 [32]: > 100 µM (inactive); GI50 [33]: 35.3 µM (inactive); GI50 [34]: 89.1 µM (inactive); GI50 [35]: > 100 µM (inactive); GI50 [36]: 61.4 µM (inactive); GI50 [37]: 63 µM (inactive); GI50 [38]: > 100 µM (inactive); GI50 [39]: 64.3 µM (inactive); GI50 [40]: 51.4 µM (inactive); GI50 [41]: 37.8 µM (inactive); GI50 [42]: 53.5 µM (inactive); GI50 [43]: 42.4 µM (inactive); GI50 [44]: 35.3 µM (inactive); GI50 [45]: > 100 µM (inactive); GI50 [46]: > 10 µM (inactive); GI50 [47]: > 100 µM (inactive); GI50 [48]: 61.7 µM (inactive); GI50 [49]: 86.5 µM (inactive); GI50 [50]: > 100 µM (inactive); GI50 [51]: 51.2 µM (inactive); GI50 [52]: 33.4 µM (inactive); GI50 [53]: 80 µM (inactive); GI50 [54]: 91.6 µM (inactive); GI50 [55]: 37.5 µM (inactive); GI50 [56]: 89.9 µM (inactive)

**Q.** What does the source list for `NCCCc1ccc2oc3ccccc3c2c1`?
**A.** GI50 [1]: 16.2 µM (inactive); GI50 [2]: 16.9 µM (inactive); GI50 [3]: 17.5 µM (inactive); GI50 [4]: 17 µM (inactive); GI50 [5]: 15.3 µM (inactive); GI50 [6]: 15.8 µM (inactive); GI50 [7]: 17.1 µM (inactive); GI50 [8]: 20.4 µM (inactive); GI50 [9]: 17.7 µM (inactive); GI50 [10]: 18.7 µM (inactive); GI50 [11]: 16.1 µM (inactive); GI50 [12]: 17.7 µM (inactive); GI50 [13]: 24.2 µM (inactive); GI50 [14]: 15.7 µM (inactive); GI50 [57]: 21.2 µM (inactive); GI50 [15]: 17.9 µM (inactive); GI50 [16]: 18.7 µM (inactive); GI50 [17]: 17.9 µM (inactive); GI50 [18]: 17.1 µM (inactive); GI50 [19]: 17.8 µM (inactive); GI50 [58]: 17.2 µM (inactive); GI50 [20]: 18.5 µM (inactive); GI50 [21]: 17 µM (inactive); GI50 [22]: 14.9 µM (inactive); GI50 [24]: 20.6 µM (inactive); GI50 [25]: 19.5 µM (inactive); GI50 [26]: 16.7 µM (inactive); GI50 [27]: 13.7 µM (inactive); GI50 [59]: 16.8 µM (inactive); GI50 [28]: 17.6 µM; GI50 [29]: 19.1 µM (inactive); GI50 [30]: 17.1 µM (inactive); GI50 [31]: 18.7 µM (inactive); GI50 [32]: 21.3 µM (inactive); GI50 [33]: 22.3 µM (inactive); GI50 [34]: 12.7 µM (inactive); GI50 [35]: 10.6 µM (inactive); GI50 [36]: 11.4 µM (inactive); GI50 [37]: 18.9 µM (inactive); GI50 [38]: 17.6 µM (inactive); GI50 [39]: 20.4 µM (inactive); GI50 [40]: 16.2 µM (inactive); GI50 [41]: 15.8 µM (inactive); GI50 [42]: 16 µM (inactive); GI50 [43]: 22.7 µM (inactive); GI50 [44]: 12.6 µM (inactive); GI50 [45]: 17.7 µM (inactive); GI50 [46]: 11.6 µM (inactive); GI50 [47]: 19.9 µM (inactive); GI50 [48]: 17.5 µM (inactive); GI50 [49]: 15.6 µM (inactive); GI50 [50]: 19.9 µM (inactive); GI50 [51]: 18.5 µM (inactive); GI50 [52]: 11.8 µM (inactive); GI50 [54]: 20.6 µM (inactive); GI50 [55]: 17.5 µM (inactive); GI50 [56]: 26.4 µM (inactive)
